Laboratory results as given in patent US12454529B2, “Piperazine cyclic ureas” (SIRONAX LTD., priority 2020, dated 2025).

Tested on: HT-29 cells
Test: HT-29 cell necrosis/necroptosis inhibition (TNF-α + SMAC mimetic + zVAD-FMK; CellTiter-Glo cell viability)
Assay type: cell-based
Details: Homo sapiens; HT-29 cells, TNF-α 10 ng/ml + SMAC mimetic 6 μM + zVAD-FMK 10 μM, 20 hours; geometric mean, 10 points in duplicate; read-out: EC50 (Cell activity; Necrosis/Necroptosis Inhibitory Activity, Compounds 143-323)
In short: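 Necroptosis was driven by TNF-α 10 ng/ml plus SMAC mimetic 6 μM and zVAD-FMK 10 μM in serum-free medium, with compounds as a 10-point threefold titration. After 20 h at 37 °C, ATP-based luminescence was read; EC50 values are geometric means of duplicate curves.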

Cc1cnn(C)c1-c1ccc(F)c(N2CCN(C(=O)N3N=CCC3c3cccnc3)CC2)n1 (stereo not drawn) [Compound 295, (4-(6-(1,4-dimethyl-1H-pyrazol-5-yl)-3-fluoropyridin-2-yl)piperazin-1-yl)(5-(pyridin-3-yl)-4,5-dihydro-1H-pyrazol-1-yl)methanone]
EC50: 0.1 to 100 nM

Cc1cnn(C)c1-c1ccc(F)c(N2CCN(C(=O)N3N=CCC3c3cncs3)CC2)n1 (stereo not drawn) [Compound 296, (4-(6-(1,4-dimethyl-1H-pyrazol-5-yl)-3-fluoropyridin-2-yl)piperazinyl)(5-(thiazol-5-yl)-4,5-dihydro-1H-pyrazol-1-yl)methanone]
EC50: 0.1 to 100 nM

Cc1cnn(C)c1-c1ccc(F)c(N2CCN(C(=O)N3N=CCC3c3ccccn3)CC2)n1 (stereo not drawn) [Compound 297, (4-(6-(1,4-dimethyl-1H-pyrazol-5-yl)-3-fluoropyridin-2-yl)piperazin-1-yl)(5-(pyridin-2-yl)-4,5-dihydro-1H-pyrazol-1-yl)methanone]
EC50: 0.1 to 100 nM

Cc1nc(C2CC=NN2C(=O)N2CCN(c3nc(-c4c(C)cnn4C)ccc3F)CC2)cs1 (stereo not drawn) [Compound 298, (4-(6-(1,4-dimethyl-1H-pyrazol-5-yl)-3-fluoropyridin-2-yl)piperazin-1-yl)(5-(2-methylthiazol-4-yl)-4,5-dihydro-1H-pyrazol-1-yl)methanone]
EC50: 0.1 to 100 nM

Cc1csc(C2CC=NN2C(=O)N2CCN(c3nc(-c4c(C)cnn4C)ccc3F)CC2)n1 (stereo not drawn) [Compound 299, (4-(6-(1,4-dimethyl-1H-pyrazol-5-yl)-3-fluoropyridin-2-yl)piperazinyl)(5-(4-methylthiazol-2-yl)-4,5-dihydro-1H-pyrazol-1-yl)methanone]
EC50: 0.1 to 100 nM

Cc1cnn(C)c1-c1ccc(F)c(N2CCN(C(=O)N3N=CCC3c3ncccc3Cl)CC2)n1 (stereo not drawn) [Compound 300, (5-(3-chloropyridin-2-yl)-4,5-dihydro-1H-pyrazol-1-yl)(4-(6-(1,4-dimethyl-1H-pyrazol-5-yl)-3-fluoropyridin-2-yl)piperazin-1-yl)methanone]
EC50: 0.1 to 100 nM

Cc1cnn(C)c1-c1ncc(F)c(N2CCN(C(=O)N3N=CC[C@H]3c3cc(F)cc(F)c3)CC2)n1 [Compound 301, (S)-(5-(3,5-difluorophenyl)-4,5-dihydro-1H-pyrazol-1-yl)(4-(2-(1,4-dimethyl-1H-pyrazol-5-yl)-5-fluoropyrimidin-4-yl)piperazin-1-yl)methanone]
EC50: 0.1 to 100 nM

O=C(N1CCN(c2ncc(F)c(-n3nccc3C(F)(F)F)n2)CC1)N1N=CC[C@H]1c1cccc(F)c1 [Compound 302, (S)-(4-(5-fluoro-4-(5-(trifluoromethyl)-1H-pyrazol-1-yl)pyrimidin-2-yl)piperazin-1-yl)(5-(3-fluorophenyl)-4,5-dihydro-1H-pyrazol-1-yl)methanone]
EC50: 0.1 to 100 nM

N#Cc1cc(F)cc([C@@H]2CC=NN2C(=O)N2CCN(c3ncc(F)c(-n4nccc4C(F)(F)F)n3)CC2)c1 [Compound 304, (S)-3-fluoro-5-(1-(4-(5-fluoro-4-(5-(trifluoromethyl)-1H-pyrazol-1-yl)pyrimidin-2-yl)piperazine-1-carbonyl)-4,5-dihydro-1H-pyrazol-5-yl)benzonitrile]
EC50: 0.1 to 100 nM

O=C(N1CCN(c2ncc(F)c(-n3cnc(C(F)(F)F)n3)n2)CC1)N1N=CC[C@H]1c1cc(F)cc(F)c1 [Compound 305, (S)-(5-(3,5-difluorophenyl)-4,5-dihydro-1H-pyrazol-1-yl)(4-(5-fluoro-4-(3-(trifluoromethyl)-1H-1,2,4-triazol-1-yl)pyrimidin-2-yl)piperazin-1-yl)methanone]
EC50: 0.1 to 100 nM

N#Cc1cc(F)cc([C@@H]2CC=NN2C(=O)N2CCN(c3ncc(F)c(-n4cnc(C(F)(F)F)n4)n3)CC2)c1 [Compound 306, (S)-3-fluoro-5-(1-(4-(5-fluoro-4-(3-(trifluoromethyl)-1H-1,2,4-triazol-1-yl)pyrimidin-2-yl)piperazine-1-carbonyl)-4,5-dihydro-1H-pyrazol-5-yl)benzonitrile]
EC50: 0.1 to 100 nM

O=C(N1CCN(c2ncc(F)c(-n3nccc3C(F)(F)F)n2)CC1)N1N=CC[C@H]1c1ccccc1 [Compound 307, (S)-(4-(5-fluoro-4-(5-(trifluoromethyl)-1H-pyrazol-1-yl)pyrimidin-2-yl)piperazin-1-yl)(5-phenyl-4,5-dihydro-1H-pyrazol-1-yl)methanone]
EC50: 0.1 to 100 nM

O=C(N1CCN(c2ncc(F)c(-n3nccc3C(F)(F)F)n2)CC1)N1N=CC[C@H]1c1cncc(F)c1 [Compound 308, (S)-(4-(5-fluoro-4-(5-(trifluoromethyl)-1H-pyrazol-1-yl)pyrimidin-2-yl)piperazin-1-yl)(5-(5-fluoropyridin-3-yl)-4,5-dihydro-1H-pyrazol-1-yl)methanone]
EC50: 0.1 to 100 nM

Cc1ncn(-c2nc(N3CCN(C(=O)N4N=CC[C@H]4c4ccccc4)CC3)ncc2F)n1 [Compound 309, (S)-(4-(5-fluoro-4-(3-methyl-1H-1,2,4-triazol-1-yl)pyrimidin-2-yl)piperazin-1-yl)(5-phenyl-4,5-dihydro-1H-pyrazol-1-yl)methanone]
EC50: 0.1 to 100 nM

Cc1ncn(-c2nc(N3CCN(C(=O)N4N=CC[C@H]4c4cccc(F)c4)CC3)ncc2F)n1 [Compound 310, (S)-(4-(5-fluoro-4-(3-methyl-1H-1,2,4-triazol-1-yl)pyrimidin-2-yl)piperazin-1-yl)(5-(3-fluorophenyl)-4,5-dihydro-1H-pyrazol-1-yl)methanone]
EC50: 0.1 to 100 nM

Cc1ncn(-c2nc(N3CCN(C(=O)N4N=CC[C@H]4c4cncc(F)c4)CC3)ncc2F)n1 [Compound 311, (S)-(4-(5-fluoro-4-(3-methyl-1H-1,2,4-triazol-1-yl)pyrimidin-2-yl)piperazin-1-yl)(5-(5-fluoropyridin-3-yl)-4,5-dihydro-1H-pyrazol-1-yl)methanone]
EC50: 0.1 to 100 nM

O=C(N1CCN(c2ncc(F)c(-n3cnc(C(F)(F)F)n3)n2)CC1)N1N=CC[C@H]1c1ccccc1 [Compound 312, (S)-(4-(5-fluoro-4-(3-(trifluoromethyl)-1H-1,2,4-triazol-1-yl)pyrimidin-2-yl)piperazinyl)(5-phenyl-4,5-dihydro-1H-pyrazol-1-yl)methanone]
EC50: 0.1 to 100 nM

O=C(N1CCN(c2ncc(F)c(-n3cnc(C(F)(F)F)n3)n2)CC1)N1N=CC[C@H]1c1cccc(F)c1 [Compound 313, (S)-(4-(5-fluoro-4-(3-(trifluoromethyl)-1H-1,2,4-triazol-1-yl)pyrimidin-2-yl)piperazin-1-yl)(5-(3-fluorophenyl)-4,5-dihydro-1H-pyrazol-1-yl)methanone]
EC50: 0.1 to 100 nM

O=C(N1CCN(c2ncc(F)c(-n3cnc(C(F)(F)F)n3)n2)CC1)N1N=CC[C@H]1c1cncc(F)c1 [Compound 314, (S)-(4-(5-fluoro-4-(3-(trifluoromethyl)-1H-1,2,4-triazol-1-yl)pyrimidin-2-yl)piperazin-1-yl)(5-(5-fluoropyridin-3-yl)-4,5-dihydro-1H-pyrazol-1-yl)methanone]
EC50: 0.1 to 100 nM

O=C(N1CCN(c2ncc(F)c(-n3nccc3C(F)(F)F)n2)CC1)N1N=CC[C@H]1c1cc(F)cc(F)c1 [Compound 315, (S)-(5-(3,5-difluorophenyl)-4,5-dihydro-1H-pyrazol-1-yl)(4-(5-fluoro-4-(5-(trifluoromethyl)-1H-pyrazol-1-yl)pyrimidin-2-yl)piperazin-1-yl)methanone]
EC50: 0.1 to 100 nM

Cc1cnc(C2CC=NN2C(=O)N2CCN(c3ncc(F)c(-c4nnc(C)s4)n3)CC2)s1 (stereo not drawn) [Compound 316]
EC50: 0.1 to 100 nM

Cc1cnc(C2CC=NN2C(=O)N2CCN(c3ncc(F)c(-c4cnn(C)n4)n3)CC2)s1 (stereo not drawn) [Compound 317, (4-(5-fluoro-4-(2-methyl-2H-1,2,3-triazol-4-yl)pyrimidin-2-yl)piperazin-1-yl)(5-(5-methylthiazol-2-yl)-4,5-dihydro-1H-pyrazol-1-yl)methanone]
EC50: 100 to 1000 nM

Cc1cnc([C@@H]2CC=NN2C(=O)N2CCN(c3ncc(F)c(-c4ncnn4C)n3)CC2)s1 [Compound 318, (S)-(4-(5-fluoro-4-(1-methyl-1H-1,2,4-triazol-5-yl)pyrimidin-2-yl)piperazin-1-yl)(5-(5-methylthiazol-2-yl)-4,5-dihydro-1H-pyrazol-1-yl)methanone]
EC50: 0.1 to 100 nM

Cc1cnc([C@@H]2CC=NN2C(=O)N2CCN(c3ncc(F)c(-n4nc(C#N)nc4C)n3)CC2)s1 [Compound 319, (S)-1-(5-fluoro-2-(4-(5-(5-methylthiazol-2-yl)-4,5-dihydro-1H-pyrazole-1-carbonyl)piperazin-1-yl)pyrimidin-4-yl)-5-methyl-1H-1,2,4-triazole-3-carbonitrile]
EC50: 0.1 to 100 nM
